According to patent US20100311714A1, “1H-IMIDAZO[4,5-c]QUINOLINONE COMPOUNDS” (priority 2009, published 2010):
Values after ≈ are worked out from the molar mass of the structure shown. Where two headings read alike, the source gives them in different places.

Tests used:
[1] = High-throughput equilibrium solubility at pH 6.8; format: physicochemical; settings: pH 6.8, aqueous buffer, thermodynamic from solid; read-out: HT-Eq Sol/pH 6.8
Summary of the method: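 Following the procedure of Zhou et al. (2007), compound solubility was determined at pH 6.8.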

[2] = target: T1, PI3K delta (Homo sapiens, UniProt O00329); test: PI3K delta kinase assay (Kinase-Glo luminescence); format: biochemical
T1 construct: for the full-length p110-d subunit are generated and fused by overlapping PCR; His tag (C); made in house; host or cells: baculovirus BV1060; Tn5 (Trichoplusia ni) or TiniPro insect cells
T1 sequence (O00329 with tags, fused parts or gaps limits assumed): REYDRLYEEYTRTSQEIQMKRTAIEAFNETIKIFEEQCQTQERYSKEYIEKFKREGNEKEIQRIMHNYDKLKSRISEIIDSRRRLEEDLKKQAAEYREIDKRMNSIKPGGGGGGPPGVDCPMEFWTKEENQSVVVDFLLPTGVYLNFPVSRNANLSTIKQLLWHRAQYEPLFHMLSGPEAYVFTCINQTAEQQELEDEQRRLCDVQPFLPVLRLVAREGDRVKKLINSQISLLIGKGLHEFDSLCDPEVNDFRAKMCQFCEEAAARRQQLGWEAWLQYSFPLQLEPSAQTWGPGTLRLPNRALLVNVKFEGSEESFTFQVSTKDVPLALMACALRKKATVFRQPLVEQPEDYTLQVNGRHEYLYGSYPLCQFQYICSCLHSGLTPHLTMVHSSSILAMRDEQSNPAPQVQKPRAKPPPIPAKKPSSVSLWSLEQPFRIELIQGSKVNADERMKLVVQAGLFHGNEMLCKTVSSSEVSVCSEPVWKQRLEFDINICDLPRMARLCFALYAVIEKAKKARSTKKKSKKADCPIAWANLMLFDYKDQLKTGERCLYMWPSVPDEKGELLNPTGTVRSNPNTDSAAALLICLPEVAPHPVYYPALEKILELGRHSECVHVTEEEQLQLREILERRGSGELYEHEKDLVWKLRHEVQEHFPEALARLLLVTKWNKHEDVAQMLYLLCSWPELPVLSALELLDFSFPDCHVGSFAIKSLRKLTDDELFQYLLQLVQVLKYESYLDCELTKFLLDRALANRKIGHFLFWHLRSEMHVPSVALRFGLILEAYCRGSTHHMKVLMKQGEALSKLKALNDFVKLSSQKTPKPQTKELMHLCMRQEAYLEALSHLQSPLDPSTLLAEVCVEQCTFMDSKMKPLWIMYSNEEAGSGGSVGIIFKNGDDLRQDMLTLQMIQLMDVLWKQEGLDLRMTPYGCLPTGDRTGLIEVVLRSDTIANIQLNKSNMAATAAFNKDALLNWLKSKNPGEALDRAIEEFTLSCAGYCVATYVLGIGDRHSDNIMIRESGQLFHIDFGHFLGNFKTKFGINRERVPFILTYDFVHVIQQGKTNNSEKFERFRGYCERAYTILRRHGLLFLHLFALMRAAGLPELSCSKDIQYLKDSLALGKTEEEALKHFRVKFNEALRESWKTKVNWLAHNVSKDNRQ
Summary of the method: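 IC50s derive from 8-point inhibition curves fitted to a 4-parameter logistic model. Reaction: 10 nM purified p110δ/p85 iSH2 fusion, 1 μM ATP, 10 μg/mL PI substrate, pH 7.5 Tris buffer with MgCl2, NaCl, CHAPS and DTT, run 60 min at room temperature; remaining ATP read by Kinase-Glo luminescence.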

SMILES	solubility thermodynamic [1]	IC50 ([2]; read-out: EPK_PI3Kdelta/IC50)	IC50 ([2]; read-out: PI3Kdelta/IC50)
CNc1ncc(-c2ccc3ncc4c(c3c2)n(-c2ccc(F)nc2C)c(=O)n4C)cc1C(F)(F)F [Example 7.13, 1-(6-Fluoro-2-methyl-pyridin-3-yl)-3-methyl-8-(6-methylamino-5-trifluoromethyl-pyridin-3-yl)-1,3-dihydro-imidazo[4,5-c]quinolin-2-one]	20 µg/mL (≈ 41.5 µM)	3 nM	
CCNc1cc(-c2ccc3ncc4c(c3c2)n(-c2ccc(OC)nc2Cl)c(=O)n4C)cnc1C [Example 18.1, 1-(2-Chloro-6-methoxy-pyridin-3-yl)-8-(5-ethylamino-6-methyl-pyridin-3-yl)-3-methyl-1,3-dihydro-imidazo[4,5-c]quinolin-2-one]	10 µg/mL (≈ 21.1 µM)	22 nM	
COc1ncccc1-n1c(=O)n(C)c2cnc3ccc(-c4ccc(F)nc4)cc3c21 [Example 1.8, 8-(6-Fluoro-pyridin-3-yl)-1-(2-methoxy-pyridin-3-yl)-3-methyl-1,3-dihydro-imidazo[4,5-c]quinolin-2-one]	4 µg/mL (≈ 9.97 µM)		364 nM
COc1ncccc1-n1c(=O)n(C)c2cnc3ccc(-c4cnc(N(C)C)nc4)cc3c21 [Example 1.9, 8-(2-Dimethylamino-pyrimidin-5-yl)-1-(2-methoxy-pyridin-3-yl)-3-methyl-1,3-dihydro-imidazo[4,5-c]quinolin-2-one]	3 µg/mL (≈ 7.02 µM)		85 nM
CNc1ncc(-c2ccc3ncc4c(c3c2)n(-c2cccnc2C)c(=O)n4C)cn1 [Example 2.2, 3-Methyl-8-(2-methylamino-pyrimidin-5-yl)-1-(2-methyl-pyridin-3-yl)-1,3-dihydro-imidazo[4,5-c]quinolin-2-one]	14 µg/mL (≈ 35.2 µM)		22 nM
CCNc1cc(-c2ccc3ncc4c(c3c2)n(-c2ccc(OC)nc2C)c(=O)n4C)cnc1C [Example 11.7, 8-(5-Ethylamino-6-methyl-pyridin-3-yl)-1-(6-methoxy-2-methyl-pyridin-3-yl)-3-methyl-1,3-dihydro-imidazo[4,5-c]quinolin-2-one]	3 µg/mL (≈ 6.6 µM)	3 nM	
CNc1ncc(-c2ccc3ncc4c(c3c2)n(-c2ccc(N(C)CCOC)nc2C)c(=O)n4C)cn1 [Example 15.2, 1-{6-[(2-Methoxy-ethyl)-methyl-amino]-2-methyl-pyridin-3-yl}-3-methyl-8-(2-methylamino-pyrimidin-5-yl)-1,3-dihydro-imidazo[4,5-c]quinolin-2-one]	81 µg/mL (≈ 167 µM)	32 nM	
CCNc1cc(-c2ccc3ncc4c(c3c2)n(-c2ccc(OCCOC)nc2C)c(=O)n4C)cnc1C [Example 13.4, 8-(5-Ethylamino-6-methyl-pyridin-3-yl)-1-[6-(2-methoxy-ethoxy)-2-methyl-pyridin-3-yl]-3-methyl-1,3-dihydro-imidazo[4,5-c]quinolin-2-one]	7 µg/mL (≈ 14 µM)	15 nM	
CNc1ccc(-c2ccc3ncc4c(c3c2)n(-c2cnc(F)cc2C)c(=O)n4C)cn1 [Example 16.4, 1-(6-Fluoro-4-methyl-pyridin-3-yl)-3-methyl-8-(6-methylamino-pyridin-3-yl)-1,3-dihydro-imidazo[4,5-c]quinolin-2-one]	55 µg/mL (≈ 133 µM)	207 nM	
Cc1nc(F)ccc1-n1c(=O)n(C)c2cnc3ccc(-c4cnc(N)c(CO)c4)cc3c21 [Example 7.17, 8-(6-Amino-5-hydroxymethyl-pyridin-3-yl)-1-(6-fluoro-2-methyl-pyridin-3-yl)-3-methyl-1,3-dihydro-imidazo[4,5-c]quinolin-2-one]	> 430 µg/mL	20 nM	
Cc1ccc(-n2c(=O)n(C)c3cnc4ccc(-c5cnc(N(C)C)nc5)cc4c32)c(C)n1 [Example 14.3, 8-(2-Dimethylamino-pyrimidin-5-yl)-1-(2,6-dimethyl-pyridin-3-yl)-3-methyl-1,3-dihydro-imidazo[4,5-c]quinolin-2-one]	7 µg/mL (≈ 16.5 µM)	49 nM	
CNc1cc(-c2ccc3ncc4c(c3c2)n(-c2ccc(F)nc2C)c(=O)n4C)cnc1CO [Example 7.11, 1-(6-Fluoro-2-methyl-pyridin-3-yl)-8-(6-hydroxymethyl-5-methylamino-pyridin-3-yl)-3-methyl-1,3-dihydro-imidazo[4,5-c]quinolin-2-one]	207 µg/mL (≈ 466 µM)	26 nM	
COCC(=O)Nc1ccc(-n2c(=O)n(C)c3cnc4ccc(-c5cncc(N)c5)cc4c32)c(C)n1 [Example 20.1, N-{5-[8-(5-Amino-pyridin-3-yl)-3-methyl-2-oxo-2,3-dihydro-imidazo[4,5-c]quinolin-1-yl]-6-methyl-pyridin-2-yl}-2-methoxy-acetamide]	28 µg/mL (≈ 59.6 µM)	34 nM	
CCNc1cc(-c2ccc3ncc4c(c3c2)n(-c2ccc(F)nc2C)c(=O)n4C)cnc1CO [Example 7.9, 8-(5-Ethylamino-6-hydroxymethyl-pyridin-3-yl)-1-(6-fluoro-2-methyl-pyridin-3-yl)-3-methyl-1,3-dihydro-imidazo[4,5-c]quinolin-2-one]	299 µg/mL (≈ 652 µM)	36 nM	
CCOc1ccc(-c2ccc3ncc4c(c3c2)n(-c2ccc(N(C)C)nc2C)c(=O)n4C)cn1 [Example 19.3, 1-(6-Dimethylamino-2-methyl-pyridin-3-yl)-8-(6-ethoxy-pyridin-3-yl)-3-methyl-1,3-dihydro-imidazo[4,5-c]quinolin-2-one]	5 µg/mL (≈ 11 µM)	395 nM	
Cc1cc(F)ncc1-n1c(=O)n(C)c2cnc3ccc(-c4cnc(N)c(C(F)(F)F)c4)cc3c21 [Example 16.1, 8-(6-Amino-5-trifluoromethyl-pyridin-3-yl)-1-(6-fluoro-4-methyl-pyridin-3-yl)-3-methyl-1,3-dihydro-imidazo[4,5-c]quinolin-2-one]	3 µg/mL (≈ 6.4 µM)	27 nM	
CNc1ccc(-c2ccc3ncc4c(c3c2)n(-c2ccc(OCCOC)nc2C)c(=O)n4C)cn1 [Example 13.3, 1-[6-(2-Methoxy-ethoxy)-2-methyl-pyridin-3-yl]-3-methyl-8-(6-methylamino-pyridin-3-yl)-1,3-dihydro-imidazo[4,5-c]quinolin-2-one]	10 µg/mL (≈ 21.3 µM)	26 nM	
CNc1cc(-c2ccc3ncc4c(c3c2)n(-c2ccc(N(C)C)nc2C)c(=O)n4C)cnc1C [Example 19.2, 1-(6-Dimethylamino-2-methyl-pyridin-3-yl)-3-methyl-8-(6-methyl-5-methylamino-pyridin-3-yl)-1,3-dihydro-imidazo[4,5-c]quinolin-2-one]	34 µg/mL (≈ 75 µM)	28 nM	
COc1ncccc1-n1c(=O)n(C)c2cnc3ccc(-c4cnc5c(ccn5C)c4)cc3c21 [Example 1.7, 1-(2-Methoxy-pyridin-3-yl)-3-methyl-8-(1-methyl-1H-pyrrolo[2,3-b]pyridin-5-yl)-1,3-dihydro-imidazo[4,5-c]quinolin-2-one]	3 µg/mL (≈ 6.87 µM)		101 nM
COCCOc1ccc(-n2c(=O)n(C)c3cnc4ccc(-c5cnc(N)c(C(F)(F)F)c5)cc4c32)c(C)n1 [Example 13.2, 8-(6-Amino-5-trifluoromethyl-pyridin-3-yl)-1-[6-(2-methoxy-ethoxy)-2-methyl-pyridin-3-yl]-3-methyl-1,3-dihydro-imidazo[4,5-c]quinolin-2-one]	27 µg/mL (≈ 51.5 µM)	14 nM	
CNc1ncc(-c2ccc3ncc4c(c3c2)n(-c2ccc(F)nc2C)c(=O)n4C)cc1F [Example 7.12, 8-(5-Fluoro-6-methylamino-pyridin-3-yl)-1-(6-fluoro-2-methyl-pyridin-3-yl)-3-methyl-1,3-dihydro-imidazo[4,5-c]quinolin-2-one]	3 µg/mL (≈ 6.94 µM)	12 nM	
COc1nc(N2CCNCC2)ccc1-n1c(=O)n(C)c2cnc3ccc(-c4cnc(N(C)C)nc4)cc3c21 [Example 9.4, 8-(2-Dimethylamino-pyrimidin-5-yl)-1-(2-methoxy-6-piperazin-1-yl-pyridin-3-yl)-3-methyl-1,3-dihydro-imidazo[4,5-c]quinolin-2-one]	> 512 µg/mL	17 nM	
CCNc1cc(-c2ccc3ncc4c(c3c2)n(-c2cnc(F)cc2C)c(=O)n4C)cnc1C [Example 16.2, 8-(5-Ethylamino-6-methyl-pyridin-3-yl)-1-(6-fluoro-4-methyl-pyridin-3-yl)-3-methyl-1,3-dihydro-imidazo[4,5-c]quinolin-2-one]	70 µg/mL (≈ 158 µM)	27 nM	
COCCN(C)c1ccc(-n2c(=O)n(C)c3cnc4ccc(-c5cncc(N)c5)cc4c32)c(C)n1 [Example 15.8, 8-(5-Amino-pyridin-3-yl)-1-{6-[(2-methoxy-ethyl)-methyl-amino]-2-methyl-pyridin-3-yl}-3-methyl-1,3-dihydro-imidazo[4,5-c]quinolin-2-one]	56 µg/mL (≈ 119 µM)	45 nM	
COc1ccc(-n2c(=O)n(C)c3cnc4ccc(-c5cnc(CO)c(OC)c5)cc4c32)c(C)n1 [Example 11.8, 8-(6-Hydroxymethyl-5-methoxy-pyridin-3-yl)-1-(6-methoxy-2-methyl-pyridin-3-yl)-3-methyl-1,3-dihydro-imidazo[4,5-c]quinolin-2-one]	26 µg/mL (≈ 56.8 µM)	< 3 nM	
CCOc1ccc(-c2ccc3ncc4c(c3c2)n(-c2cccnc2C)c(=O)n4C)cn1 [Example 2.1, 8-(6-Ethoxy-pyridin-3-yl)-3-methyl-1-(2-methyl-pyridin-3-yl)-1,3-dihydro-imidazo[4,5-c]quinolin-2-one]	3 µg/mL (≈ 7.29 µM)		94 nM
CCOc1ccc(-c2ccc3ncc4c(c3c2)n(-c2ccc(OCCOC)nc2C)c(=O)n4C)cn1 [Example 13.1, 8-(6-Ethoxy-pyridin-3-yl)-1-[6-(2-methoxy-ethoxy)-2-methyl-pyridin-3-yl]-3-methyl-1,3-dihydro-imidazo[4,5-c]quinolin-2-one]	3 µg/mL (≈ 6.18 µM)	742 nM	
